Source: PubChem BioAssay (NCI)
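Each compound was tested at five concentrations against cells in 96-well plates for 48 hours. The concentration for 50% growth inhibition is given as GI50. Definition used: TGI = concentration required for complete inhibition of growth.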

Legend:
Experiment in all cases: inhibition of tumour cell growth, NCI panel, 48 h
SF-539 CNS = test system: SF-539 CNS
LOX IMVI melanoma = test system: LOX IMVI melanoma
UO-31 renal = test system: UO-31 renal
NCI-H460 lung = test system: NCI-H460 lung
OVCAR-5 ovarian = test system: OVCAR-5 ovarian
DU-145 prostate = test system: DU-145 prostate
HOP-62 NSCLC = test system: HOP-62 NSCLC
UACC-257 melanoma = test system: UACC-257 melanoma
PC-3 prostate = test system: PC-3 prostate
HS 578T breast = test system: HS 578T breast
CAKI-1 renal = test system: CAKI-1 renal
HCT-116 colon = test system: HCT-116 colon
OVCAR-4 ovarian = test system: OVCAR-4 ovarian
HT29 colon = test system: HT29 colon
SF-268 CNS = test system: SF-268 CNS
SR leukemia = test system: SR leukemia
786-0 renal = test system: 786-0 renal
SN12C renal = test system: SN12C renal
KM12 colon = test system: KM12 colon
MDA-MB-231 breast = test system: MDA-MB-231 breast
A498 renal = test system: A498 renal
SW-620 colon = test system: SW-620 colon
BT-549 breast = test system: BT-549 breast
CCRF-CEM leukemia = test system: CCRF-CEM leukemia
M14 melanoma = test system: M14 melanoma
HCT-15 colon = test system: HCT-15 colon
COLO 205 colon = test system: COLO 205 colon
NCI-H522 lung = test system: NCI-H522 lung
A549 NSCLC = test system: A549 NSCLC
RPMI-8226 leukemia = test system: RPMI-8226 leukemia
MALME-3M melanoma = test system: MALME-3M melanoma
UACC-62 melanoma = test system: UACC-62 melanoma
NCI/ADR-RES ovarian = test system: NCI/ADR-RES ovarian
SK-OV-3 ovarian = test system: SK-OV-3 ovarian
NCI-H226 lung = test system: NCI-H226 lung
SK-MEL-2 melanoma = test system: SK-MEL-2 melanoma
MOLT-4 leukemia = test system: MOLT-4 leukemia
SNB-19 CNS = test system: SNB-19 CNS
OVCAR-3 ovarian = test system: OVCAR-3 ovarian
RXF 393 renal = test system: RXF 393 renal
SK-MEL-28 melanoma = test system: SK-MEL-28 melanoma
NCI-H23 lung = test system: NCI-H23 lung
U251 CNS = test system: U251 CNS
HCC-2998 colon = test system: HCC-2998 colon
ACHN renal = test system: ACHN renal
MCF7 breast = test system: MCF7 breast
MDA-MB-435 = test system: MDA-MB-435
HOP-92 NSCLC = test system: HOP-92 NSCLC
OVCAR-8 ovarian = test system: OVCAR-8 ovarian
SK-MEL-5 melanoma = test system: SK-MEL-5 melanoma
T-47D breast = test system: T-47D breast
IGROV1 ovarian = test system: IGROV1 ovarian
K-562 leukemia = test system: K-562 leukemia
TK-10 renal = test system: TK-10 renal
SF-295 CNS = test system: SF-295 CNS
SNB-75 CNS = test system: SNB-75 CNS
HL-60(TB) leukemia = test system: HL-60(TB) leukemia

SMILES: COc1cc(NCCN=C(N)NC(N)=NC(C)C)c2ncccc2c1
- GI50 (SF-539 CNS): 4.06 µM
- TGI (SF-539 CNS): 20 µM
- GI50 (LOX IMVI melanoma): 20.1 µM
- TGI (LOX IMVI melanoma): 94.8 µM
- GI50 (UO-31 renal): > 100 µM
- TGI (UO-31 renal): > 100 µM
- GI50 (NCI-H460 lung): 5.67 µM
- TGI (NCI-H460 lung): > 57.6 µM
- GI50 (OVCAR-5 ovarian): 11.2 µM
- TGI (OVCAR-5 ovarian): 39.3 µM
- GI50 (DU-145 prostate): 38.3 µM
- TGI (DU-145 prostate): > 100 µM
- GI50 (HOP-62 NSCLC): 28.5 µM
- TGI (HOP-62 NSCLC): > 100 µM
- GI50 (UACC-257 melanoma): 11 µM
- TGI (UACC-257 melanoma): 32.5 µM
- GI50 (PC-3 prostate): 8.96 µM
- TGI (PC-3 prostate): > 100 µM
- GI50 (HS 578T breast): 13 µM
- TGI (HS 578T breast): > 75.1 µM
- GI50 (CAKI-1 renal): > 100 µM
- TGI (CAKI-1 renal): > 100 µM
- GI50 (HCT-116 colon): 3.63 µM
- TGI (HCT-116 colon): > 100 µM
- GI50 (OVCAR-4 ovarian): 0.0708 µM
- TGI (OVCAR-4 ovarian): 1.23 µM
- GI50 (HT29 colon): 7.91 µM
- TGI (HT29 colon): > 100 µM
- GI50 (SF-268 CNS): 3.98 µM
- TGI (SF-268 CNS): > 100 µM
- GI50 (SR leukemia): 15 µM
- TGI (SR leukemia): > 100 µM
- GI50 (786-0 renal): > 88.8 µM
- TGI (786-0 renal): > 100 µM
- GI50 (SN12C renal): 3.47 µM
- TGI (SN12C renal): 18.2 µM
- GI50 (KM12 colon): 3.53 µM
- TGI (KM12 colon): > 41.2 µM
- GI50 (MDA-MB-231 breast): 3.17 µM
- TGI (MDA-MB-231 breast): 21.4 µM
- GI50 (A498 renal): > 58.1 µM
- TGI (A498 renal): > 100 µM
- GI50 (SW-620 colon): 15.4 µM
- TGI (SW-620 colon): > 100 µM
- GI50 (BT-549 breast): 9.66 µM
- TGI (BT-549 breast): 29.4 µM
- GI50 (CCRF-CEM leukemia): 16.4 µM
- TGI (CCRF-CEM leukemia): > 100 µM
- GI50 (M14 melanoma): 22.6 µM
- TGI (M14 melanoma): > 100 µM
- GI50 (HCT-15 colon): > 86 µM
- TGI (HCT-15 colon): > 100 µM
- GI50 (COLO 205 colon): 1.7 µM
- TGI (COLO 205 colon): 7.95 µM
- GI50 (NCI-H522 lung): 3.61 µM
- TGI (NCI-H522 lung): 40.7 µM
- GI50 (A549 NSCLC): 37.3 µM
- TGI (A549 NSCLC): > 100 µM
- GI50 (RPMI-8226 leukemia): 15.5 µM
- TGI (RPMI-8226 leukemia): > 76.4 µM
- GI50 (MALME-3M melanoma): 1.6 µM
- TGI (MALME-3M melanoma): 6.71 µM
- GI50 (UACC-62 melanoma): 18.9 µM
- TGI (UACC-62 melanoma): 94.6 µM
- GI50 (NCI/ADR-RES ovarian): > 100 µM
- TGI (NCI/ADR-RES ovarian): > 100 µM
- GI50 (SK-OV-3 ovarian): 48.8 µM
- TGI (SK-OV-3 ovarian): > 100 µM
- GI50 (NCI-H226 lung): 39.7 µM
- TGI (NCI-H226 lung): > 100 µM
- GI50 (SK-MEL-2 melanoma): 1.99 µM
- TGI (SK-MEL-2 melanoma): 7.36 µM
- GI50 (MOLT-4 leukemia): 25 µM
- TGI (MOLT-4 leukemia): > 100 µM
- GI50 (SNB-19 CNS): 9.18 µM
- TGI (SNB-19 CNS): > 100 µM
- GI50 (OVCAR-3 ovarian): 1.06 µM
- TGI (OVCAR-3 ovarian): 23.1 µM
- GI50 (RXF 393 renal): > 38.5 µM
- TGI (RXF 393 renal): > 100 µM
- GI50 (SK-MEL-28 melanoma): 14.1 µM
- TGI (SK-MEL-28 melanoma): > 83.8 µM
- GI50 (NCI-H23 lung): 3.25 µM
- TGI (NCI-H23 lung): 15.7 µM
- GI50 (U251 CNS): 12.4 µM
- TGI (U251 CNS): > 100 µM
- GI50 (HCC-2998 colon): 6.61 µM
- TGI (HCC-2998 colon): 50.9 µM
- GI50 (ACHN renal): > 100 µM
- TGI (ACHN renal): > 100 µM
- GI50 (MCF7 breast): 0.0297 µM
- TGI (MCF7 breast): 0.116 µM
- GI50 (MDA-MB-435): 18.6 µM
- TGI (MDA-MB-435): 41.9 µM
- GI50 (HOP-92 NSCLC): 3.59 µM
- TGI (HOP-92 NSCLC): 31.6 µM
- GI50 (OVCAR-8 ovarian): 22.6 µM
- TGI (OVCAR-8 ovarian): > 100 µM
- GI50 (SK-MEL-5 melanoma): 3.4 µM
- TGI (SK-MEL-5 melanoma): 11.7 µM
- GI50 (T-47D breast): 1.44 µM
- TGI (T-47D breast): 5.12 µM
- GI50 (IGROV1 ovarian): 1.37 µM
- TGI (IGROV1 ovarian): > 24.8 µM
- GI50 (K-562 leukemia): 10.7 µM
- TGI (K-562 leukemia): > 100 µM
- GI50 (TK-10 renal): 11.3 µM
- TGI (TK-10 renal): 69.9 µM
- GI50 (SF-295 CNS): > 90.9 µM
- TGI (SF-295 CNS): > 100 µM
- GI50 (SNB-75 CNS): 2.48 µM
- TGI (SNB-75 CNS): 13.8 µM
- GI50 (HL-60(TB) leukemia): 14.3 µM
- TGI (HL-60(TB) leukemia): 39.6 µM
